{
  "source": "patent US20230066156A1",
  "about": "“6-SUBSTITUTED, 22-CYANO HYODEOXYCHOLANIC ANALOGUES AND USES THEREOF” (PRECISION BIO-THERAPEUTICS S.R.L., priority 2019, published 2023)",
  "biological_target": "T1, FXR (Homo sapiens, UniProt Q96RI1)",
  "T1 construct": "expressed in transfected cells; host or cells: HepG2",
  "T1 sequence (Q96RI1 1-486)": "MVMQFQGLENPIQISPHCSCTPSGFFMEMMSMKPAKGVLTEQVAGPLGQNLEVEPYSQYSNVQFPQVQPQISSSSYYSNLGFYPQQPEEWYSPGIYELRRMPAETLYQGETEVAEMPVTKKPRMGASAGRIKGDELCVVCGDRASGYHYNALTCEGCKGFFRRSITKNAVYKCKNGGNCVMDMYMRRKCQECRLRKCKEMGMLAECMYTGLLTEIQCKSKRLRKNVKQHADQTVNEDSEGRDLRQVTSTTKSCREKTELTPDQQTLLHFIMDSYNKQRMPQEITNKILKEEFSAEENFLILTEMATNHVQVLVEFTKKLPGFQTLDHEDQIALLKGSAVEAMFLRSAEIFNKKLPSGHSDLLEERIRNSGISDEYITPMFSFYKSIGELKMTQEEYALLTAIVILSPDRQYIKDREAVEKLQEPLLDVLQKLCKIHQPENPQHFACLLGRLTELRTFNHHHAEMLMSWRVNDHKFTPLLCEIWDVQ",
  "T1 sequence (P19793 1-462 partner)": "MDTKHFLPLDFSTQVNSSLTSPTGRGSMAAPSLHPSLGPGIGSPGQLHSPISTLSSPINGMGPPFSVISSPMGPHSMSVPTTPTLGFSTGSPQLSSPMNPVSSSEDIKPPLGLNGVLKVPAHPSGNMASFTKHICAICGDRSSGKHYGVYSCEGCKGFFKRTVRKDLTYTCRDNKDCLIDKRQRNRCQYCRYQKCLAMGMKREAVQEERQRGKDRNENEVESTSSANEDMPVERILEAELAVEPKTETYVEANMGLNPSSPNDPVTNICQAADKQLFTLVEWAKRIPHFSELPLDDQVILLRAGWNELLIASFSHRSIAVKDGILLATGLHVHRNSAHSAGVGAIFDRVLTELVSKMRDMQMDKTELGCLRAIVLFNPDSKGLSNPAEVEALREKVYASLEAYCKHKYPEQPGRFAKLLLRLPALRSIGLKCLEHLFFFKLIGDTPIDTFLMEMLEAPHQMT",
  "assay": "FXR mediated transactivation, IR1 (hsp27)-luciferase reporter in transfected HepG2 cells",
  "assay_type": "cell-based",
  "conditions": "compound at 10 μM, HepG2, vs maximal transactivation by CDCA 10 μM, triplicate",
  "description": "Selected compounds were tested in vitro on FXR and TGR5/GPBAR1 receptors (Table 1) using a whole cell model transfected with a reporter genes. The activity was evaluated in comparison with chenodeoxycholic acid (CDCA) and TLCA.\nCDCA is a primary bile acid that functions as an endogenous ligand for FXR, while TLCA is a physiological ligand for TGR5/GPBAR1. In this assay, HepG2 cells (a liver-derived cell line) were cultured at 37° C. in minimum essential medium with Earl's salts containing 10% fetal bovine serum (FBS), 1% L-glutamine, and 1% penicillin/streptomycin. HEK-293T cells were cultured at 37° C. in D-MEM containing 10% fetal bovine serum (FBS), 1% L-glutamine, and 1% penicillin/streptomycin. The transfection experiments were performed using Fugene HD according to manufactured specifications. Cells were plated in a 24-well plate at 5×10^4 cells/well. For FXR mediated transactivation, HepG2 cells were transfected with 100 ng of pSG5-FXR, 100 ng of pSG5-RXR, 100 ng of pGL4.70 a vector encoding the human Renilla gene and 250 ng of the reporter vector p(hsp27)-TK-LUC containing the FXR response element IR1 cloned from the promoter of heat shock protein 27 (hsp27).\nThe data on the activity of certain compounds of the invention on TGR5/GPBAR1 are described in the following table 1. In this table, activities for compounds of the invention on GPBAR1 was compared to those of the reference compound TLCA. For % of activity, each compound was tested at the concentration of 10 microM and transactivation activity of TLCA on CRE (i.e. TGR5/GPBAR1) was considered equal to 100%. For selectivity toward FXR, activity was assessed in HepG2 cells transfected with an FXR responsive element (IR1) cloned upstream to the luciferase gene. For calculation of efficacy data, maximal transactivation of IR1 caused by each compound (10 μM) was compared to maximal transactivation caused by CDCA (10 μM). GPBAR1/FXR selectivity calculated as ratio between % of activity toward GPBAR1 and % of activity toward FXR. Each experiment was conducted in triplicate.",
  "data": [
    {"molecule": "CC[C@]1(O)C[C@H]2[C@@H]3CC[C@H]([C@H](C)CC#N)[C@@]3(C)CC[C@@H]2[C@@]2(C)CC[C@@H](O)C[C@@H]12", "note": "[PBT110B, 3α,6α-dihydroxy-6β-ethyl-24-nor-5β-cholan-23-nitrile]", "values": [
      {"measurement": "FXR (% of activity in comparison to 10 μM CDCA)", "value": "12.3 ± 0.47", "unit": "%"}
    ]}
  ]
}
